Holding throughout (assay type): in vivo
The test system of one assay is Amaranthus retroflexus. Kind of assay: greenhouse test, post-emergence treatment, AMARE. The text has this:
(§1) The culture containers used were plastic flowerpots containing loamy sand with approximately 3.0% of humus as the substrate. The seeds of the test plants were sown separately for each species.
(§2) For the post-emergence treatment, the test plants were first grown to a height of 3 to 15 cm, depending on the plant habit, and only then treated with the active ingredients which had been suspended or emulsified in water. For this purpose, the test plants were either sown directly and grown in the same containers, or they were first grown separately as seedlings and transplanted into the test containers a few days prior to treatment.
(§3) Depending on the species, the plants were kept at 10-25° C. or 20-35° C., respectively.
(§4) The test period extended over 2 to 4 weeks. During this time, the plants were tended, and their response to the individual treatments was evaluated.
(§5) Evaluation was carried out using a scale from 0 to 100. 100 means no emergence of the plants, or complete destruction of at least the aerial moieties, and 0 means no damage, or normal course of growth. A good herbicidal activity is given at values of at least 70 and a very good herbicidal activity is given at values of at least 85.
(§6) The plants used in the greenhouse experiments were of the following species: […]

A further assay deals with Alopecurus myosuroides. The experiment in a line: greenhouse test, post-emergence treatment, ALOMY. Particulars: post-emergence.
Excerpt: as §1, §2, §3, §4, §5, §6

In another assay the test system is Avena fatua. Kind of assay: greenhouse test, post-emergence treatment, AVEFA.
Excerpt: as §1, §2, §3, §4, §5, §6

Assay [1] deals with Echinocloa crus-galli. The experiment in a line: greenhouse test, post-emergence treatment, ECHCG. Particulars: post-emergence.
Excerpt: as §1, §2, §3, §4, §5, §6

In a further assay the test system is Apera spica-venti. The experiment in a line: greenhouse test, pre-emergence treatment, APESV.
Excerpt: as §1
(§7) For the pre-emergence treatment, the active ingredients, which had been suspended or emulsified in water, were applied directly after sowing by means of finely distributing nozzles. The containers were irrigated gently to promote germination and growth and subsequently covered with transparent plastic hoods until the plants had rooted. This cover caused uniform germination of the test plants, unless this had been impaired by the active ingredients.
as §3, §4, §5, §6

Assay [2] has as its system Echinocloa crus-galli. The experiment in a line: greenhouse test, pre-emergence treatment, ECHCG.
Excerpt: as §1, §7, §3, §4, §5, §6

For `Brc1ccccc1-c1cnc(C2CC2)nc1-c1csc2ccccc12` [Ex. 47], the herbicidal activity result in the assay on Amaranthus retroflexus (1000 g/ha) is “very good (a very good herbicidal activity is given at values of at least 85)”.
With `OC1(c2nc(C3CC3)ncc2-c2ccccc2Cl)CCCC1` [Ex. 127], the herbicidal activity entry with Amaranthus retroflexus (2000 g/ha) is “very good (a very good herbicidal activity is given at values of at least 85)”.
Consider `OC(c1ccccc1)C(O)c1nc(C2CC2)ncc1-c1ccccc1Cl` (stereo not drawn) [Ex. 153], for which the herbicidal activity result with Alopecurus myosuroides (2000 g/ha), in the assay with Avena fatua (2000 g/ha), in the assay on Echinocloa crus-galli [1] (2000 g/ha), in the assay with Apera spica-venti (2000 g/ha) and with Echinocloa crus-galli [2] (2000 g/ha) was “very good (a very good herbicidal activity is given at values of at least 85)” in each case.
Take `OC(c1nc(C2CC2)ncc1-c1ccccc1Cl)C1(O)CCC1` (stereo not drawn) [Ex. 154]: the herbicidal activity result with Alopecurus myosuroides (2000 g/ha), in the assay on Avena fatua (2000 g/ha), in the assay on Echinocloa crus-galli [1] (2000 g/ha), with Apera spica-venti (2000 g/ha) and in the assay on Echinocloa crus-galli [2] (2000 g/ha) was “very good (a very good herbicidal activity is given at values of at least 85)” throughout.
As for `Brc1ccccc1-c1cnc(C2CC2)nc1C=C1CCC1` [Ex. 157], the herbicidal activity result in the assay on Alopecurus myosuroides (2000 g/ha), in the assay on Avena fatua (2000 g/ha), in the assay on Echinocloa crus-galli [1] (2000 g/ha), in the assay on Apera spica-venti (2000 g/ha) and in the assay with Echinocloa crus-galli [2] (2000 g/ha) was “very good (a very good herbicidal activity is given at values of at least 85)” in each case.
Take `Cc1ncoc1-c1nc(C2CC2)ncc1-c1cc(F)ccc1Cl` [Ex. 236]: the herbicidal activity entry in the assay on Alopecurus myosuroides (2000 g/ha), in the assay on Avena fatua (2000 g/ha), in the assay on Echinocloa crus-galli [1] (2000 g/ha), with Apera spica-venti (2000 g/ha) and in the assay on Echinocloa crus-galli [2] (2000 g/ha) was “very good (a very good herbicidal activity is given at values of at least 85)” each time.
In the case of `Cc1cc(-c2nc(C3CC3)ncc2-c2ccccc2Br)c(C)o1` [Ex. 237], the herbicidal activity result with Alopecurus myosuroides (2000 g/ha), with Avena fatua (2000 g/ha), with Echinocloa crus-galli [1] (2000 g/ha), with Apera spica-venti (2000 g/ha) and in the assay on Echinocloa crus-galli [2] (2000 g/ha) was “very good (a very good herbicidal activity is given at values of at least 85)” throughout.
`Cc1nc(C)c(-c2nc(C3CC3)ncc2-c2ccccc2Cl)o1` [Ex. 243]: the herbicidal activity result in the assay with Alopecurus myosuroides (1000 g/ha), with Avena fatua (1000 g/ha), with Echinocloa crus-galli [1] (1000 g/ha), in the assay with Apera spica-venti (1000 g/ha) and in the assay on Echinocloa crus-galli [2] (1000 g/ha) was “very good (a very good herbicidal activity is given at values of at least 85)” each time.
Regarding `Clc1ccccc1-c1cnc(C2CC2)nc1-c1cncs1` [Ex. 245], the herbicidal activity entry in the assay with Alopecurus myosuroides (1000 g/ha) was “very good (a very good herbicidal activity is given at values of at least 85)”; in the assay on Avena fatua (1000 g/ha), “very good (a very good herbicidal activity is given at values of at least 85)”; with Echinocloa crus-galli [1] (1000 g/ha) it was “very good (a very good herbicidal activity is given at values of at least 85)”; in the assay on Apera spica-venti (1000 g/ha), “very good (a very good herbicidal activity is given at values of at least 85)”; in the assay on Echinocloa crus-galli [2] (1000 g/ha), “good (A good herbicidal activity is given at values of at least 70)”.
With `COc1cnc(O)nc1-c1nc(C2CC2)ncc1-c1ccccc1Cl` [Ex. 250], the herbicidal activity entry with Alopecurus myosuroides (2000 g/ha), in the assay with Avena fatua (2000 g/ha), in the assay with Echinocloa crus-galli [1] (2000 g/ha), with Apera spica-venti (2000 g/ha) and with Echinocloa crus-galli [2] (2000 g/ha) was “very good (a very good herbicidal activity is given at values of at least 85)” throughout.
Regarding `Brc1ccccc1-c1cnc(C2CC2)nc1-c1cnco1` [Ex. 261], the herbicidal activity result with Alopecurus myosuroides (1000 g/ha), in the assay on Avena fatua (1000 g/ha), in the assay with Echinocloa crus-galli [1] (1000 g/ha), in the assay on Apera spica-venti (1000 g/ha) and in the assay with Echinocloa crus-galli [2] (1000 g/ha) was “very good (a very good herbicidal activity is given at values of at least 85)” in each case.
Consider `Cc1ncoc1-c1nc(C2CC2)ncc1-c1cc(C(F)(F)F)ccc1Br` [Ex. 263], for which the herbicidal activity result with Alopecurus myosuroides (1000 g/ha), with Avena fatua (1000 g/ha), in the assay with Echinocloa crus-galli [1] (1000 g/ha), with Apera spica-venti (1000 g/ha) and in the assay with Echinocloa crus-galli [2] (1000 g/ha) was “very good (a very good herbicidal activity is given at values of at least 85)” in each case.
As for `Cc1oc(C(C)C)nc1-c1nc(C2CC2)ncc1-c1ccccc1Cl` [Ex. 283], the herbicidal activity result in the assay on Alopecurus myosuroides (2000 g/ha) is “very good (a very good herbicidal activity is given at values of at least 85)”; with Avena fatua (2000 g/ha), “very good (a very good herbicidal activity is given at values of at least 85)”; in the assay on Echinocloa crus-galli [1] (2000 g/ha) it was “very good (a very good herbicidal activity is given at values of at least 85)”; with Apera spica-venti (2000 g/ha), “very good (a very good herbicidal activity is given at values of at least 85)”; with Echinocloa crus-galli [2] (2000 g/ha), “good (A good herbicidal activity is given at values of at least 70)”.
As for `Cc1nc(C)c(-c2nc(C3CC3)ncc2-c2cc(F)ccc2Cl)o1` [Ex. 284], the herbicidal activity entry with Alopecurus myosuroides (2000 g/ha), in the assay with Avena fatua (2000 g/ha), with Echinocloa crus-galli [1] (2000 g/ha), in the assay with Apera spica-venti (2000 g/ha) and in the assay on Echinocloa crus-galli [2] (2000 g/ha) was “very good (a very good herbicidal activity is given at values of at least 85)” throughout.
Take `Brc1ccccc1-c1cnc(C2CC2)nc1-c1cocn1` [Ex. 287]: the herbicidal activity entry with Alopecurus myosuroides (1000 g/ha), in the assay with Avena fatua (1000 g/ha), in the assay with Echinocloa crus-galli [1] (1000 g/ha), in the assay with Apera spica-venti (1000 g/ha) and in the assay with Echinocloa crus-galli [2] (1000 g/ha) was “very good (a very good herbicidal activity is given at values of at least 85)” each time.
Regarding `CCc1nc(C)c(-c2nc(C3CC3)ncc2-c2ccccc2Br)o1` [Ex. 290], the herbicidal activity result in the assay on Alopecurus myosuroides (2000 g/ha), with Avena fatua (2000 g/ha), in the assay with Echinocloa crus-galli [1] (2000 g/ha), in the assay with Apera spica-venti (2000 g/ha) and in the assay on Echinocloa crus-galli [2] (2000 g/ha) was “very good (a very good herbicidal activity is given at values of at least 85)” each time.

The values above are taken from patent US11178871B2, “Herbicidal pyrimidine compounds” (BASF SE, priority 2016, dated 2021).
